Measured values reported in patent US20080004306A1, “Compositions and methods for modulating gated ion channels” (PainCeptor Pharma Corporation, priority 2006, published 2008).

Columns and labels:
hASIC1a [1] = target: T1, hASIC1a (Homo sapiens, UniProt P78348); assay: Two-electrode voltage clamp in Xenopus laevis oocytes expressing gated ion channels (Xo, Example 3); type: cell-based; settings: for inhibition at 50 µM: read-out: % inh. at 50 μM (Xo)
T1 construct: expressed in transfected cells; host or cells: Xenopus laevis oocytes, nuclear microinjection of an expression vector such as pCDNA3
T1 sequence (P78348 1-528): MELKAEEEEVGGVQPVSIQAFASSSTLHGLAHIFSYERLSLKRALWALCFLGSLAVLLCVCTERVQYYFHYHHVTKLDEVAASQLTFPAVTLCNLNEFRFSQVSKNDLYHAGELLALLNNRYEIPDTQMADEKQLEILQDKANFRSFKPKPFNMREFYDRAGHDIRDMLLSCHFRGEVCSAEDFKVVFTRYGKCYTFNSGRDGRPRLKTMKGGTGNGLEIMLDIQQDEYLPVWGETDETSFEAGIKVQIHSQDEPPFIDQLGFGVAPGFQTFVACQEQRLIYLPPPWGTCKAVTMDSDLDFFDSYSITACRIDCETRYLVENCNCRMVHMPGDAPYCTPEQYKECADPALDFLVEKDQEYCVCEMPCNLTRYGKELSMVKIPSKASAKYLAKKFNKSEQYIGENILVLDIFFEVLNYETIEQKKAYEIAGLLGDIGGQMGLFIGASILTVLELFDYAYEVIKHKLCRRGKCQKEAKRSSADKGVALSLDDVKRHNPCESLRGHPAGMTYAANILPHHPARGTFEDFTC
Experimental: Two-electrode voltage clamp electrophysiological assays in Xenopus laevis oocytes expressing gated ion channels are performed as follows:
Oocytes are surgically removed from adult Xenopus laevis and treated for 2 h at room temperature with 1 mg/ml type I collagenase (Sigma) in Barth's solution under mild agitation. Selected oocytes at stage IV-V are defolliculated manually before nuclear microinjection of 2.5-5 ng of a suitable expression vector, such as pCDNA3, comprising the nucleotide sequence encoding a gated ion channel subunit protein. In such an experiment, the oocytes express homomultimeric proton-gated ion channels on their surface. In an alternate experiment, one, two, three or more vectors comprising the coding sequences for distinct gated ion channel subunits are co-injected in the oocyte nuclei. In the latter case, oocytes express heteromultimeric proton-gated ion channels. […] Once impaled with the microelectrodes, oocytes are continuously superfused at 10-12 ml/min with a modified Ringer's solution containing 97 mM NaCl, 2 mM KCl, 1.8 mM CaCl2, and 10 mM HEPES brought to pH 7.4 with NaOH (Control Ringer). Test Ringer solution is prepared by replacing HEPES with MES and adjusting the pH to the desired acidic value. Compounds of the present invention are prepared in both the Control and Test Ringer solutions and applied to oocytes at room temperature through a computer-controlled switching valve system. […] Similarly, recordings can also be acquired in an automated multichannel oocytes system as the OpusExpress™ (Molecular Devices, Sunnyvale, USA).

hASIC1a [2] = target: T1, hASIC1a; assay: Whole cell patch clamp in HEK293 cells transfected with hASIC1a (Example 2); type: cell-based; settings: six point dose-response, whole cell patch clamp (FIG. 1B), read-out: IC50, inhibition of acid-induced hASIC1a activity
Experimental: Another example of an in vitro assessment method consists of using mammalian heterologous expression systems, which are known to the skilled in the art, and include a variety of mammalian cell lines such as COS, HEK, e.g., HEK293and/or CHO, cells. Cell lines are transfected with gated ion channel(s) and used to perform electrophysiology as follows:
All experiments are performed at room temperature (20-25° C.) in voltage clamp using conventional whole cell patch clamp methods (Neher, E., et al. (1978) Pfluegers Arch 375:219-228).
The amplifier used is the EPC-9 (HEKA-electronics, Lambrect, Germany) run by a Macintosh G3 computer via an ITC-16 interface. Experimental conditions are set with the Pulse-software accompanying the amplifier. […]
Coverslips with the cells are transferred to a 15 μl experimental chamber mounted on the stage of an inverted microscope (IMT-2, Olympus) supplied with Nomarski optics. […] The cells are held at a holding voltage of −60 mV and at the start of each experiment the current is continuously measured for 45 s to ensure a stable baseline. […] Current amplitudes are measured at the peak of the responses, and effect of the compounds is calculated as the amplitude at compound equilibrium divided by the amplitude of the current evoked by the pulse just before the compound is included. […]

[3] = test system: thermal hyperalgesia from carrageenan-induced paw inflammation; assay: Carrageenan model, thermal hyperalgesia (Hargreaves' assay); type: in vivo, rat
Experimental: Acute inflammatory hyperalgesia is induced in rats by unilateral injection of […] of a 3% solution of 1-carrageenan into the plantar surface of the left hind paw 2-4 h prior to testing. Thermal nociceptive thresholds are determined according to the method described elsewhere (Hargreaves et al., 1988). Briefly, through the glass surface, a radiant heat source (8 V, 50 W projector bulb) is focused onto the plantar surface of the hind paw. The rat's paw-withdrawal latency to this stimulus is recorded to the nearest 0.1 s. Each latency score is an average of three trials, which are separated by at least 5 min. In all rats, both the injured and uninjured hind paws are similarly tested, allowing direct comparisons between inflamed and non-inflamed paws.

[4] = Xenopus laevis oocytes, two-electrode voltage clamp, Table 1, read-out: IC50 (Xo)
[5] = Xenopus laevis oocytes, two-electrode voltage clamp

Row | inhibition at 50 µM (hASIC1a [1]; [5]) | SMILES | IC50 (hASIC1a [1]; [4]) | further results
1 | – | CCN1CCc2c(-c3cc(F)ccc3OC)cc3c(C=O)c[nH]c3c2C1 [Compound 8] | > 50 µM | –
2 | – | CCN1CCc2c(-c3ccccc3)cc3c(N)n[nH]c3c2C1 [Compound 6] | > 50 µM | –
3 | < 25% | CCN1CCc2c(-c3ccccc3)cc3c(c2C1)NC(=O)C3=CNC [Compound 3] | – | –
4 | 25 to 45% | CCN1CCc2c(-c3ccccc3)cc3c(c2C1)NC(=O)C3SC (stereo not drawn) [Compound 1] | – | –
5 | > 50% | CCN1CCc2c(-c3ccccc3)cc3c(c2C1)NC(=O)C3=CN [Compound 5] | – | IC50 (hASIC1a [1]; three point dose-response, acid-induced hASIC1a currents in Xenopus laevis oocytes (FIG. 1A), read-out: IC50, half maximal inhibition of the acid-evoked response in hASIC1a): 10 µM; IC50 (hASIC1a [2]): 15 µM; effect on thermal hyperalgesia ([3]; 75 mg/kg s.c., given 30 min prior to carrageenan, 2-4 hours post-carrageenan, versus control paw level): completely reversed; ED50 ([3]; Rattus norvegicus, sc, 30 min prior to carrageenan, tested 2, 3 and 4 h post carrageenan): ~50 mg/kg
6 | < 25% | CCN1CCc2c(-c3ccccc3)cc3c(c2C1)NC(=O)C3 [Compound 2] | – | –
7 | – | CCN1CCc2c(-c3cc(F)ccc3OC)cc3cc[nH]c3c2C1 [Compound 7] | > 50 µM | –
8 | – | CCN1CCc2c(-c3ccccc3)cc3cc[nH]c3c2C1 [Compound 9] | > 50 µM | –
9 | – | CCN1CCc2c(-c3ccccc3)cc3c(C=O)c[nH]c3c2C1 [Compound 10] | > 50 µM | –
10 | < 25% | CCN1CCc2c(-c3ccccc3)cc3c(c2C1)NC(=O)C3=CNCCO [Compound 4] | – | –
11 | – | CCN1CCc2c(-c3ccccc3)cc3c(C(N)=O)c[nH]c3c2C1 [Compound 11] | > 50 µM | –
